Data as given in ChEMBL document CHEMBL1777676, “3-substitued indoles: one-pot synthesis and evaluation of anticancer and Src kinase inhibitory activities” (Bioorg Med Chem Lett, 2011).

Columns and labels:
[1] = biological target: Proto-oncogene tyrosine-protein kinase Src (Homo sapiens, UniProt P12931); experiment: Inhibition of c-Src using AEEEIYGEFEAKKKK substrate by fluorescence intensity assay
SK-OV-3 = experiment: Anticancer activity against human SKOV3 cells assessed as inhibition of cell proliferation at 50 uM after 72 hrs relative to control; assay type: functional; settings: SK-OV-3, 72 h
HT-29 = experiment: Anticancer activity against human HT-29 cells assessed as inhibition of cell proliferation at 50 uM after 72 hrs relative to control; assay type: functional; settings: HT-29, 72 h

Sequence of Proto-oncogene tyrosine-protein kinase Src (P12931 2-536 limits assumed): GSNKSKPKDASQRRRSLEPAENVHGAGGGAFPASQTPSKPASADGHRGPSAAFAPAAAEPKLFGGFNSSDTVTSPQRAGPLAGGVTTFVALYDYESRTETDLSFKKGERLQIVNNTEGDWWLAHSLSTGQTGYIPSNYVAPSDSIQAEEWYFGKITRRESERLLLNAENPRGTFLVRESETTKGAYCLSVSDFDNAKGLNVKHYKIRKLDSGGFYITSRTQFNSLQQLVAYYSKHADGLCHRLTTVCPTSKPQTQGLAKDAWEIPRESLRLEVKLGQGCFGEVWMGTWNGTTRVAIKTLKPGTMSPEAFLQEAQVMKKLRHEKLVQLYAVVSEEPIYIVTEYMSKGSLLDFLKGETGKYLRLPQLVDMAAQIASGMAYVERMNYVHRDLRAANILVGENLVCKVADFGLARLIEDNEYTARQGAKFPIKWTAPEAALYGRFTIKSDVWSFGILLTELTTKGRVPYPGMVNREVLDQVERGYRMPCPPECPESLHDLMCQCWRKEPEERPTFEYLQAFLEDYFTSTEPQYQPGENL

IC50 [1] [µM] | SMILES | inhibition at 50 µM (SK-OV-3) [%] | inhibition at 50 µM (HT-29) [%]
> 150 | COc1cccc(C(c2c[nH]c3ccccc23)N(C)c2ccccc2)c1 (configuration not stated) | – | –
87 | COc1ccc2[nH]cc(C(c3ccc(Cl)cc3)N(C)c3ccccc3)c2c1 (configuration not stated) | 77 | –
50.6 | CN(c1ccccc1)C(c1ccccc1)c1c[nH]c2ccccc12 (configuration not stated) | 55 | –
> 150 | COc1ccc2[nH]cc(C(c3ccc(C)cc3)N(C)c3ccccc3)c2c1 (configuration not stated) | 70 | 70
> 150 | COc1ccc(C(c2c[nH]c3ccccc23)N(C)c2ccccc2)c(OC)c1 (configuration not stated) | – | –
> 150 | CN(c1ccccc1)C(c1ccc(O)c(Br)c1)c1c[nH]c2ccccc12 (configuration not stated) | – | –
> 150 | CN(c1ccccc1)C(c1ccc(O)cc1)c1c[nH]c2ccccc12 (configuration not stated) | – | –
100 | COc1ccc(C(c2c[nH]c3ccc(OC)cc23)N(C)c2ccccc2)cc1 (configuration not stated) | – | –
> 150 | Cc1ccc(C(c2c[nH]c3ccc(Br)cc23)N(C)c2ccccc2)cc1 (configuration not stated) | 70 | 70
58.3 | CN(c1ccccc1)C(c1cccc([N+](=O)[O-])c1)c1c[nH]c2ccccc12 (configuration not stated) | – | –
71.6 | CN(c1ccccc1)C(c1ccccc1)c1c[nH]c2ccc(Br)cc12 (configuration not stated) | – | –
98.3 | CN(c1ccccc1)C(c1ccc(Cl)cc1)c1cn(C)c2ccccc12 (configuration not stated) | – | –
> 150 | CN(c1ccccc1)C(c1ccc(Cl)cc1)c1c[nH]c2ccccc12 (configuration not stated) | 72 | –
> 150 | CN(c1ccccc1)C(c1ccccc1)c1cn(C)c2ccccc12 (configuration not stated) | – | –
106 | COc1ccc(C(c2c[nH]c3ccc(Br)cc23)N(C)c2ccccc2)cc1 (configuration not stated) | 70 | 70
60.5 | Cc1ccc(C(c2cn(C)c3ccccc23)N(C)c2ccccc2)cc1 (configuration not stated) | – | –
> 150 | COc1ccc(C(c2c[nH]c3ccccc23)N(C)c2ccccc2)cc1 (configuration not stated) | – | –
> 150 | Cc1ccc(C(c2c[nH]c3ccccc23)N(C)c2ccccc2)cc1 (configuration not stated) | – | –
